Assay results reported in patent US10526502B2, “Container coating system” (SWIMC LLC, priority 2012, dated 2020).

Target: T1, human estrogen receptor (Homo sapiens, UniProt P03372)
T1 sequence (P03372 1-595): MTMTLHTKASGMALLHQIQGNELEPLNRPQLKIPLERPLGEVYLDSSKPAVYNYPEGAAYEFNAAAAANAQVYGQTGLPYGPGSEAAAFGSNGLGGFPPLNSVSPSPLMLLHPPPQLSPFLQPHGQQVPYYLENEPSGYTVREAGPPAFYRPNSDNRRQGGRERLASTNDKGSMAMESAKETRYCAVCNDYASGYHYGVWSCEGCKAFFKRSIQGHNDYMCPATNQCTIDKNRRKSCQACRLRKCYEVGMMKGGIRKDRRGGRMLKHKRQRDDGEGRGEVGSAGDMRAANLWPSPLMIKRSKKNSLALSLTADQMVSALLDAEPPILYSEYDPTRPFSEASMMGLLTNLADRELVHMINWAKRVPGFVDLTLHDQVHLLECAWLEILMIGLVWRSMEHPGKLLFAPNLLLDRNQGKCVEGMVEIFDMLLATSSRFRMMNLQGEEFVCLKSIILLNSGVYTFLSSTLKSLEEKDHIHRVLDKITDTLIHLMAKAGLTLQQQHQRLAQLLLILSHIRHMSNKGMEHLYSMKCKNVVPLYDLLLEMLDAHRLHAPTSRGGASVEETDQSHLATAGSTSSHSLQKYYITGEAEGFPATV
Assay: suitable in vitro assay whose results are directly correlated to the MCF-7 assay
Details: in vitro assay correlated to MCF-7 through common reference compounds

Question: For CC(C)(C)c1cc(O)c(C(C)(C)C)cc1O [Structure 12, 2,5-di-t-butylhydroquinone], which estrogenic activity is on record?
Answer: The estrogenic activity was “do not exhibit appreciable estrogenic activity”.

Question: For Cc1cc(Cc2cc(C)cc(C(C)(C)C)c2O)c(O)c(C(C)(C)C)c1 [Structure 9], which estrogenic activity is on record?
Answer: The estrogenic activity was “do not exhibit appreciable estrogenic activity”.

Question: For CC(C)(C)c1cc(Cc2cc(C(C)(C)C)c(O)c(C(C)(C)C)c2)cc(C(C)(C)C)c1O [Structure 8, 4,4′-methylenebis(2,6-di-t-butylphenol)], which estrogenic activity is on record?
Answer: The estrogenic activity was “do not exhibit appreciable estrogenic activity”.

Question: With CCCC(c1cc(C(C)(C)C)c(O)cc1C)c1cc(C(C)(C)C)c(O)cc1C [Structure 7, 4,4′-butylidenebis(2-t-butyl-5-methylphenol)] as the molecule, how does the estrogenic activity read?
Answer: The estrogenic activity was “do not exhibit appreciable estrogenic activity”.

Question: Which estrogenic activity does the source give for Cc1cc(Cc2cc(C)c(O)c(C)c2)cc(C)c1O [Structure 6, 4,4′-methylenebis(2,6-dimethylphenol)] here?
Answer: The estrogenic activity was “do not exhibit appreciable estrogenic activity”.

Test system: MCF-7, clone WS8, cells
Assay: MCF-7 cell proliferation assay of estrogenic activity
Format: cell-based, human
Details: logarithmic (base 10) Relative Proliferative Effect vs 17-beta estradiol; values 'expected or measured'
Description: The MCF-7 assay is a useful test for assessing whether a polyhydric phenol compound is appreciably non-estrogenic. The MCF-7 assay uses MCF-7, clone WS8, cells to measure whether and to what extent a substance induces cell proliferation via estrogen receptor (ER)-mediated pathways. The method is described in “Test Method Nomination: MCF-7 Cell Proliferation Assay of Estrogenic Activity” submitted for validation by CertiChem, Inc. to the National Toxicology Program Interagency Center for the Evaluation of Alternative Toxicological Methods (NICEATM) on Jan. 19, 2006 (available online at iccvam.niehs.nih.gov/methods/endocrine/endodocs/SubmDoc.pdf).
A brief summary of the method of the aforementioned MCF-7 assay is provided below. MCF-7, clone WS8, cells are maintained at 37° C. in RMPI (Roswell Park Memorial Institute medium) containing Phenol Red (e.g., GIBCO Catalog Number 11875119) and supplemented with the indicated additives for routine culture. An aliquot of cells maintained at 37° C. are grown for two days in phenol-free media containing 5% charcoal stripped fetal bovine serum in a 25 cm^2 tissue culture flask. Using a robotic dispenser such as an EPMOTION™ 5070 unit from Eppendorf AG, MCF-7 cells are then seeded at 400 cells per well in 0.2 ml of hormone-free culture medium in CORNING™ 96-well plates from Corning Life Sciences. The cells are adapted for 3 days in the hormone-free culture medium prior to adding the chemical to be assayed for estrogenic activity. The media containing the test chemical is replaced daily for 6 days. At the end of the 7 day exposure to the test chemical, the media is removed, the wells are washed once with 0.2 ml of HBSS (Hanks' Balanced Salt Solution), and then assayed to quantify amounts of DNA per well using a micro-plate modification of the Burton diphenylamine (DPA) assay, which is used to calculate the level of cell proliferation. […]
Table I shown below includes exemplary preferred polyhydric phenol compounds of Formula II and their expected or measured logarithmic RPE values in the MCF-7 assay.

Question: Which “Log RPE” value does the source give for O=S(=O)(c1ccc(O)cc1)c1ccc(O)cc1 [Bisphenol S] here?
Answer: Its value is −2.

Question: Which “Log RPE” value does the source give for Oc1ccc(Cc2ccc(O)cc2)cc1 [Bisphenol F] here?
Answer: The value was −2.

Question: Which “Log RPE” value does the source give for C[C@]12CC[C@@H]3c4ccc(O)cc4CC[C@H]3[C@@H]1CC[C@@H]2O [17β-estradiol] here?
Answer: The value was 2.00.

Test system: not listed separately
Assay: suitable genotoxicity assays (e.g., Ames II assay)
Format: cell-based
Details: not given
Protocol: A solution of 4,4′-methylenebis(2,6-di-t-butylphenol) (500 grams, 1.076 moles obtained from Albemarle Corporation) in anhydrous dimethylformamide (1.5 liters) was cooled to −10° C. and a solution of sodium tert-pentoxide (374 grams, 3.23 moles) in anhydrous dimethylformamide (1.5 liters) was added dropwise at −10 to −5° C. The mixture was stirred for 30 minutes at −10° C. Epichlorohydrin (1.9 liters, 24.2 moles) was added via dropping funnel at −10 to −5° C. The solution was allowed to warm up to room temperature and then was heated for 16 hours at a temperature of from 75 to 82° C. After cooling down to ambient temperature, the mixture was added to cold tap water (12 liters). Ethyl acetate (5 liters) was added to the mixture, which was stirred for 10 minutes and separated. The aqueous layer was extracted again with additional ethyl acetate (3 liters). The combined ethyl acetate extracts were washed twice with brine (2×6 liters), dried over anhydrous sodium sulfate (600 grams), and filtered. The solvent was removed under reduced pressure to give 887 grams of crude product as a purple oil. The crude product was dissolved in toluene (600 milliliters) and passed over a silica gel pad (1.4 kilograms), and eluted with a mixture of toluene and heptane (8 parts toluene to 2 parts heptane). The fractions containing product were combined and evaporated under reduced pressure. […]

Question: For CCCC(c1cc(C(C)(C)C)c(OCC2CO2)cc1C)c1cc(C(C)(C)C)c(OCC2CO2)cc1C (stereo not shown) [Diglycidyl ether of 4,4′Butylidenebis(2-t-butyl-5-methylphenol))], which genotoxicity is on record?
Answer: Its genotoxicity is “non-genotoxic”.

Question: For CC(C)(C)c1cc(Cc2cc(C(C)(C)C)c(OCC3CO3)c(C(C)(C)C)c2)cc(C(C)(C)C)c1OCC1CO1 (stereo not shown) [Diglycidyl ether of 4,4′-methylenebis(2,6-di-tert-butylphenol)], which genotoxicity is on record?
Answer: The genotoxicity was “non-genotoxic”.
